The values below come from patent publication US20230242496A1, “SOX11 INHIBITORS FOR TREATING MANTLE CELL LYMPHOMA” (Icahn School of Medicine At Mount Sinai, priority 2020, published 2023).

The target in experiment [1] is T1, (His)6-SOX11-DBD protein (Homo sapiens, UniProt P35716).
T1 construct: Recombinant (His)6-SOX11-DBD protein was immobilized
T1 sequence (P35716 49-117 limits assumed): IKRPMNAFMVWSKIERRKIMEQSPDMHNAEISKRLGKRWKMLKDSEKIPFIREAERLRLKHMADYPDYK
Nature of the experiment: Surface Plasmon Resonance (SPR) assay. It is filed as binding. As to conditions: immobilized recombinant (His)6-SOX11-DBD, 25° C., compounds 5-40 μM, mean of three experiments. The protocol: Surface Plasmon Resonance (SPR) Assay
Recombinant (His)6-SOX11-DBD protein was immobilized at a flow rate of 10 μl/min for 180 seconds to the right channel of a gold-coated SCR NiHC200M sensor chip (XanTec bioanalytics) placed in a Reichert 2SPR instrument (Reichert Technologies). The left channel, without immobilized protein, was used as a reference. […] Compounds flowed sequentially from the left to the right channel over the prepared sensor chip surface. 120 seconds association phase with each compound concentration was followed by 300 seconds dissociation phase with the assay buffer alone. The ka, kd, and KD values were determined from the sensograms for at least 3 concentrations of each compound by curve fitting the data using Reichert's TraceDrawer software. The mean KD value for each compound was calculated from three separate experiments.

For experiment [2], the system named is Jeko-1 (SOX11+). Kind of experiment: Cell viability assay (CellTiter-Blue resazurin reduction). It is filed as cell-based. As to conditions: Homo sapiens, JeKo-1, 72 h, JeKo-1 cells; for IC50: 0-40 μM; for viability at 20 µM: 20 μM compound, normalized to 0.2% DMSO. As for the experimental part:
Cell viability was determined by a fluorometric resazurin reduction method (CellTiter-Blue; Promega, Madison, Wis.) following the manufacturer's instructions. […] Cells were incubated for 72 hours. After incubation, 20 μl CellTiter-Blue Cell was added to each well and incubated for another 2 hours. […] The number of viable cells in each treated well was calculated, based on the linear least squares regression of the standard curve (OD vs. cell concentration). The viability of cells treated with compounds was normalized to the viability of cells treated with 0.2% Dimethyl sulfoxide (DMSO). Cell counts were confirmed with Trypan Blue Exclusion Assay on the Countess automated cell counter (Invitrogen) according to the manufacturer's specifications. The average and mean standard deviation were calculated from three separate experiments. IC50 values were calculated using the GraphPad Prism (version 4.00) based on a sigmoidal dose-response equation.
Background: The colour change of resazurin is a common sign of viable cells or microbes.

What is called Kd is the concentration at which binding is half-saturated. Broadly, the IC50 is the concentration needed to halve the response being measured. A lower IC50 goes with inhibition by little substance. A word on the viability: it is a read-out of living cells in per cent, often relative to untreated cells. Turning to `O=C(Nc1cccc(OCc2ccccc2)c1)c1ccc2snnc2c1`, the Kd in experiment [1] worked out at 9.61 µM. In addition, in experiment [2], the IC50 was more than 20 µM and the viability at 20 µM was 98.1%.
In the same order, the values of `CC1Sc2ccc(C(=O)Nc3cccc(S(=O)(=O)NC4CC4)c3)cc2NC1=O` (stereo not drawn) are 96.9 µM, 4 µM and 11.9%.
In the case of `CCCN1C(=O)CSc2ccc(C(=O)Nc3ccc(S(=O)(=O)N4CCCCC4)cc3)cc21`, in experiment [1], the Kd amounted to 5.87 µM. Also, in experiment [2], the IC50 came out at 17 µM and the viability at 20 µM is 39.9%.
With `CC1Sc2ccc(C(=O)Nc3ccc(Cl)c(S(=O)(=O)N(C)C(C)C)c3)cc2NC1=O` (stereo not drawn), the Kd in experiment [1] was determined as 13.4 µM. The viability at 20 µM in experiment [2] is 12%.
Regarding `CC1Sc2ccc(NC(=O)c3ccc(S(=O)(=O)Nc4ccccc4)cc3)cc2NC1=O` (stereo not drawn), the Kd in experiment [1] was 33.2 µM. In experiment [2], inhibition was half-maximal at 9 µM (IC50) and the viability at 20 µM stood at 33.5%.
In the same order, the values of `CC1Sc2ccc(C(=O)Nc3ccc(S(=O)(=O)N4CCCCC4)cc3)cc2NC1=O` (stereo not drawn) are 3.63 µM, 8 µM and 7.38%.
In the same order, the values of `Cc1cccc(NS(=O)(=O)c2cccc(NC(=O)c3ccc4c(c3)NC(=O)C(C)S4)c2)c1` (stereo not drawn) are 2.47 µM, 10 µM and 3.73%.
Take `CC1Sc2ccc(C(=O)Nc3ccc(S(=O)(=O)Nc4ccc(C(F)(F)F)cc4)cc3)cc2NC1=O` (stereo not drawn): the Kd in experiment [1] was 1.57 µM. Besides, in experiment [2], the IC50 is more than 20 µM and the viability at 20 µM worked out at 63.6%.
Consider `O=C1CSc2ccc(C(=O)Nc3cccc(S(=O)(=O)N4CCCC4)c3)cc2N1`, for which the Kd in experiment [1] amounted to 38.6 µM. In experiment [2], the IC50 is 20 µM and the viability at 20 µM worked out at 45.4%.
Turning to `CC(C)NS(=O)(=O)c1cccc(NC(=O)c2ccc3c(c2)NC(=O)C(C)S3)c1` (stereo not drawn), the Kd in experiment [1] was 90.9 µM. For the same compound, in experiment [2], half-maximal inhibition (IC50) was put at 8 µM and the viability at 20 µM was 17.6%.
As to `c1ccc(COc2ccc(CNc3ccc4cncnc4c3)cc2)cc1`, the Kd in experiment [1] came out at 5.2 µM. Besides, in experiment [2], the viability at 20 µM came to 1.09%.
`CC1Sc2ccc(C(=O)Nc3ccc(S(=O)(=O)Nc4ccccc4)cc3)cc2N(C)C1=O` (stereo not drawn): the Kd in experiment [1] is 1.95 µM. Besides, in experiment [2], 8 µM corresponded to half-maximal inhibition (IC50) and the viability at 20 µM came out at 1.23%.
Regarding `O=C(Nc1ccc(S(=O)(=O)Nc2ccccc2)cc1)c1ccc2c(c1)CCCS2`, the Kd in experiment [1] stood at 1.62 µM. Besides, in experiment [2], the IC50 came to 12 µM and the viability at 20 µM was 1.95%.
In the same order, the values of `CC1Sc2ccc(C(=O)ONc3ccc(S(=O)(=O)Nc4ccccc4)nc3)cc2NC1=O` (stereo not drawn) are 5.07 µM, more than 20 µM and 90%.
In the same order, the values of `O=C(Nc1ccc(S(=O)(=O)Nc2ccccc2)cc1)c1ccc2ncccc2c1` are 70 µM, less than 20 µM and 26%.
`CC1Sc2ccc(NC(=O)c3ccc(S(=O)(=O)Nc4ccccc4)c(F)c3)cc2NC1=O` (stereo not drawn): the Kd in experiment [1] was 16.1 µM. Further, in experiment [2], the IC50 is more than 20 µM and the viability at 20 µM stood at 75.8%.
With `CC1Sc2ccc(C(=O)Nc3ccc(CN(C)C(C)C)cc3)cc2NC1=O` (stereo not drawn), the Kd in experiment [1] was 1.17 µM. Further, in experiment [2], the viability at 20 µM was determined as 105%.
Take `CC1Sc2ccc(C(=O)Nc3cccc(S(=O)(=O)Nc4ccc(NC(=O)OC(C)(C)C)cc4)c3)cc2NC1=O` (stereo not drawn): the Kd in experiment [1] was 5.07 µM. Also, in experiment [2], the IC50 is more than 20 µM and the viability at 20 µM came to 67.4%.
In the same order, the values of `CC1Sc2ccc(C(=O)N(c3ccccc3)S(=O)(=O)c3ccc(N)cc3)cc2NC1=O` (stereo not drawn) are 7.75 µM, more than 20 µM and 91.2%.
For `CC1Sc2ccc(C(=O)Nc3ccc(S(=O)(=O)Nc4ccccc4)cc3F)cc2NC1=O` (stereo not drawn), in experiment [1], the dissociation constant (Kd) stood at 31 µM. In experiment [2], the IC50 is more than 20 µM and the viability at 20 µM was found to be 90%.
In the case of `CC1Sc2ccc(C(=O)Nc3cccc(S(=O)(=O)Nc4cccc(Cl)c4)c3)cc2NC1=O` (stereo not drawn), in experiment [1], the Kd was 3.15 µM. Also, in experiment [2], the IC50 was less than 20 µM and the viability at 20 µM was found to be 28.8%.
In the same order, the values of `O=C(Nc1ccc(OCc2ccccc2)cc1)c1ccc2snnc2c1` are 1.65 µM, more than 20 µM and 93.6%.
In the same order, the values of `Cc1ccccc1NS(=O)(=O)c1ccc(NC(=O)c2ccc3c(c2)NC(=O)C(C)S3)cc1` (stereo not drawn) are 14.1 µM, 10 µM and 9.87%.
In the same order, the values of `CC1Sc2ccc(C(=O)Nc3cccc(S(=O)(=O)Nc4ccc(F)cc4)c3)cc2NC1=O` (stereo not drawn) are 8.48 µM, more than 20 µM and 55.6%.
Regarding `CC1Sc2ccc(C(=O)Nc3ccc(S(=O)(=O)N4CCCCCC4)cc3)cc2NC1=O` (stereo not drawn), the Kd in experiment [1] worked out at 2.63 µM. Also, in experiment [2], the midpoint of inhibition, the IC50, lay at 7.5 µM and the viability at 20 µM came to 0.46%.
Consider `CC1Sc2ccc(C(=O)Nc3cccc(S(=O)(=O)Nc4ccccc4)c3)cc2NC1=O` (stereo not drawn), for which, in experiment [1], the Kd was found to be 18.6 µM. In experiment [2], half-maximal inhibition (IC50) required 10 µM and the viability at 20 µM was 2.81%.
Turning to `CN1C(=O)CSc2ccc(C(=O)Nc3ccc(S(=O)(=O)N4CCCCC4)c(Cl)c3)cc21`, the Kd in experiment [1] came to 2.75 µM. Also, the viability at 20 µM in experiment [2] is 4.13%.
Take `CC1Sc2ccc(C(=O)Nc3ccc(S(=O)(=O)Nc4ccccc4)c(Cl)c3)cc2NC1=O` (stereo not drawn): the Kd in experiment [1] is 4.36 µM. In addition, in experiment [2], the IC50 turned out to be 5 µM and the viability at 20 µM was 1.8%.
`CC1Sc2ccc(C(=O)Nc3cccc(S(=O)(=O)N4CCCC4)c3)cc2N(C)C1=O` (stereo not drawn): in experiment [1], the dissociation constant Kd was determined as 346 µM. Moreover, the viability at 20 µM in experiment [2] came out at 13.9%.
Consider `CCN(CC)S(=O)(=O)c1ccc(NC(=O)c2ccc3c(c2)NC(=O)C(C)S3)cc1` (stereo not drawn), for which the Kd in experiment [1] turned out to be 30.9 µM. Besides, in experiment [2], the IC50 was determined as 7.5 µM and the viability at 20 µM came to 0.6%.
For the compound `O=C(Nc1ccc(S(=O)(=O)N2CCCCC2)cc1)c1ccc2c(c1)N(c1ccccc1)C(=O)CS2`, the Kd in experiment [1] was determined as 6.67 µM.
In the case of `CC1Sc2ccc(C(=O)Nc3cccc(OCc4ccc(OS(=O)(=O)F)cc4)c3)cc2NC1=O` (stereo not drawn), in experiment [1], the Kd came to 19.1 µM.
Take `Nc1cccc(Nc2ccnc(Nc3cccc(S(=O)(=O)N4CCCC4)c3)n2)c1`: in experiment [1], the Kd was 118 µM.
Same read-out and setting: then `Clc1cccc(COc2ccc(CNc3ccc4cncnc4c3)cc2)c1`, with 3.28 µM; and `CN(c1ccccc1)S(=O)(=O)c1ccc(NC(=O)c2ccc(SCC(=O)O)cc2)cc1`, with 11 µM; and `Nc1ccccc1CC(=O)Nc1cccc(C(=O)Nc2ccc(CN3CCCC3)cc2)c1`, with 15.4 µM.
As to `FC(F)(F)c1cc(CNc2ccc3cncnc3c2)ccc1OCc1ccccc1`, the Kd in experiment [1] came to 4.89 µM.
On the same count and under the same terms, for `O=C(Nc1cccc(CNc2ccccc2)c1)c1ccc2oc(=O)[nH]c2c1` the value was 18.2 µM.
Take `c1ncc2ccc(NCc3ccc(OCC4CCCCC4)cc3)cc2n1`: in experiment [1], the Kd is 8.28 µM.
In the case of `NCCc1nc2ccc(C(=O)Nc3ccc(S(=O)(=O)Nc4ccccc4)cc3)cc2[nH]1`, in experiment [1], the Kd came to 79.3 µM.
Same read-out and setting: then `CC(=O)NCc1cccc(Nc2ccnc(Nc3cccc(S(=O)(=O)N4CCCC4)c3)n2)c1`, with 38 µM; and `Cc1cc(C(=O)Nc2ccc(S(=O)(=O)Nc3ccccc3)cc2)nc(NCCN)n1`, with 22.1 µM; and `CN1C(=O)CSc2ccc(C(=O)Nc3ccc(S(C)(=O)=O)cc3)cc21`, with 82.1 µM.
In the case of `Clc1cc(CNc2ccc3cncnc3c2)ccc1OCc1ccccc1`, the Kd in experiment [1] was 4.01 µM.
Same read-out and setting: then `CC1Sc2ccc(C(=O)Nc3ccc(OCc4cccc(S(=O)(=O)F)c4)cc3)cc2NC1=O` (stereo not drawn), with 7.17 µM; and `CN(Cc1ccc(NC(=O)c2ccc3c(c2)CCCS3)cc1)c1ccccc1`, with 11.5 µM.
On the same count and under the same terms, then `CCCCN1C(=O)CSc2ccc(C(=O)Nc3ccc(S(=O)(=O)N4CCCCC4)cc3)cc21`, with 25.2 µM.
Still for that read-out and setting: then `CC(=O)N1CCN(S(=O)(=O)c2ccc(NC(=O)c3ccc4snnc4c3)cc2)CC1`, with 16.9 µM; and `Cc1ccc(C(=O)Nc2ccc(S(=O)(=O)Nc3ccccc3)cc2)cc1NC(=O)CCc1c[nH]cn1`, with 72.1 µM.
In the case of `Cc1ccccc1COc1ccc(CNc2ccc3cncnc3c2)cc1`, the Kd in experiment [1] came out at 11.1 µM.
Same read-out and setting: for `COc1cccc(NC(=O)Nc2cc(Nc3cccc(S(=O)(=O)N4CCCC4)c3)ncn2)c1` the value was 16.5 µM.
For the compound `O=C(Nc1ccc(CNc2ccccc2)cc1)c1ccc2nncn2c1`, in experiment [1], the Kd is 46.1 µM.
As to `Cc1ccccc1N(C)S(=O)(=O)c1ccc(NC(=O)c2ccc3c(c2)CCCS3)cc1`, the Kd in experiment [1] is 10.3 µM.
Regarding `O=C1CSc2ccc(C(=O)Nc3ccc(CNc4ccccc4)cc3)cc2N1`, in experiment [1], the Kd worked out at 1.74 µM.
For the compound `c1ccc(CNc2ccc(CNc3ccc4cncnc4c3)cc2)cc1`, the Kd in experiment [1] was found to be 30.6 µM.
Same read-out and setting: then `CN(Cc1ccccc1)c1ccc(CNc2ccc3cccnc3c2)cc1`, with 9.27 µM.
